Reference: patent publication US20040106545A1, “Compounds and methods for modulating cell adhesion” (priority 1996, published 2004)
Like-named read-outs stand apart in the source and are kept apart here. Positions of bridges follow the written chain, without caps; N, C: chain ends. Residues, ends and D or L forms follow the SMILES beside them. *: point of attachment. Ms = CS(=O)(=O)*

Experiments:
[1] = tested on: PC-3; experiment: Cytotoxicity, MTT assay, PC-3; format: cell-based, human
Procedure: (§1) N—Ac-CHAVC-NH2 (SEQ ID NO:10) and the control peptide N—Ac-CHGVC-NH2 (SEQ ID NO:11) were evaluated for possible cytotoxic effects on human microvascular endothelial (HMVEC; Clonetics), human umbilical vein endothelial (HUVEC; ATCC #CRL-1730), IAFp2 (human fibroblast cell line; Institute Armand-Frapier, Montreal, Quebec), WI-38 (human fibroblast cell line; ATCC #CCL-75), MDA-MB231 (human breast cancer cell line; ATCC #HTB-26), and PC-3 (human prostate cancer cell line; ATCC #CRL-1435) cells utilizing the MTT assay (Plumb et al., Cancer Res. 49:4435-4440, 1989). Neither of the peptides was cytotoxic at concentrations up to and including 100 μM. Similarly, neither of the peptides was capable of inhibiting the proliferation of the above cell lines at concentrations up to 100 μM, as judged by ^3H-thymidine incorporation assays.

[2] = tested on: IAFp2; format: cell-based, human; details: 3 h
Procedure: as §1

[3] = tested on: HMVEC; format: cell-based, human; details: 3 h
Procedure: as §1

[4] = tested on: HUVEC; format: cell-based, human; details: 3 h
Procedure: as §1

[5] = tested on: WI-38; format: cell-based, human; details: 3 h
Procedure: as §1

[6] = tested on: PC-3; format: cell-based, human; details: 3 h
Procedure: as §1

[7] = tested on: MDA-MB231; format: cell-based, human; details: 3 h
Procedure: as §1

[8] = target: T1, N-cadherin (Gallus gallus, UniProt P10288); experiment: Neurite outgrowth inhibition, rat neurons (Example 21); format: cell-based; details: read-out: % Inhibition of neurite outgrowth; 250 μg/mL
T1 construct: expressed in transfected cells; host or cells: 3T3 fibroblasts (monolayer)
T1 sequence (P10288 165-912): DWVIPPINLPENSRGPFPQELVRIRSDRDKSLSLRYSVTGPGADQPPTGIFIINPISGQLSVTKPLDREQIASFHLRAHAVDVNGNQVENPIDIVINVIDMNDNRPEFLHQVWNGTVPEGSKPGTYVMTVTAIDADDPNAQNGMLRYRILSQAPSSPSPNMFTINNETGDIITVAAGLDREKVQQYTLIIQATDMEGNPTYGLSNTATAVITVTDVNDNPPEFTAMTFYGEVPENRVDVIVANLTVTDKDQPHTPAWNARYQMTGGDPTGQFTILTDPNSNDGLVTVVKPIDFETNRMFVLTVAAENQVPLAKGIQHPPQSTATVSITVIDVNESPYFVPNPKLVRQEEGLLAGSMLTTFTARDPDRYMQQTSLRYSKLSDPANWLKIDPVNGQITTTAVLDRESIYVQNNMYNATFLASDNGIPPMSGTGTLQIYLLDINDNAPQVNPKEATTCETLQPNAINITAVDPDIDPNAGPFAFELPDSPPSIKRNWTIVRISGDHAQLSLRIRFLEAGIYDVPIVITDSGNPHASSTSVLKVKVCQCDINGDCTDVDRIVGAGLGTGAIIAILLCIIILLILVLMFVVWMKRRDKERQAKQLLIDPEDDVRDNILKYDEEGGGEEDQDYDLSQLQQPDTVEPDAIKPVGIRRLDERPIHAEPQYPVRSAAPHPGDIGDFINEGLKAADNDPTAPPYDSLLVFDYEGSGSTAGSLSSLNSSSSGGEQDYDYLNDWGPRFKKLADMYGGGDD

[9] = tested on: MDA-MB231; experiment: Cytotoxicity, MTT assay, MDA-MB231; format: cell-based, human
Procedure: as §1

[10] = target: T2, chick N-cadherin (Gallus gallus, UniProt P10288); experiment: Neurite outgrowth of rat cerebellar neurons on N-cadherin expressing 3T3 monolayers (Example 15); format: cell-based; details: Tables 8 and 9
T2 construct: expressed in transfected cells; host or cells: 3T3 fibroblasts (monolayer); rat post-natal day 2-3 cerebellar neurons plated on top
T2 sequence (P10288 165-912): T1 sequence (P10288 165-912)
Procedure: Cell culture and neurite outgrowth assays. Co-cultures of cerebellar neurons on monolayers of control 3T3 cells and monolayers of transfected 3T3 cells that express physiological levels of chick N-cadherin or human L1 were established as previously described (Williams et al., Neuron 13:583-594, 1994). In brief, 80,000 3T3 cells (control and transfected) were plated into individual chambers of an eight-chamber tissue culture slide coated with polylysine and fibronectin and cultured in DMEM/10% FCS. After 24 hours, when confluent monolayers had formed, the medium was removed and 3000 cerebellar neurons isolated from post-natal day 2-3 rats were plated into each well in SATO media (Doherty et al., Nature 343:464-466, 1990) supplemented with 2% FCS. All of the test peptides were added immediately before the neurons as a 2× stock prepared in SATO/2% FCS. The co-cultures were maintained for 16-18 hours, at which time they were fixed and immunostained for GAP-43 which is present only in the neurons and delineates the neuritic processes. The mean length of the longest neurite per cell was measured for 150-200 neurons sampled in replicate cultures as previously described (Williams et al., Neuron 13:583-594, 1994). […] Dose-response curves were evaluated and the EC50 values determined.

[11] = tested on: Madin Darby canine kidney (MDCK) cells; format: cell-based; details: 18 h
[12] = tested on: chick embryonic chorioallantoic membranes; experiment: Chick chorioallantoic membrane angiogenesis assay; format: in vivo; details: for Percent Inhibition of Angiogenesis: 24 hours
Procedure: Another cell adhesion assay evaluates the ability of a modulating agent to block angiogenesis (the growth of blood vessels from pre-existing blood vessels). This ability may be assayed using the chick chorioallantoic membrane assay described by Iruela-Arispe et al., Molecular Biology of the Cell 6:327-343, 1995. Briefly, a modulating agent may be embedded in a mesh composed of vitrogen at one or more concentrations (e.g., ranging from about 1 to 100 μg/mesh). The mesh(es) may then be applied to chick chorioallantoic membranes. After 24 hours, the effect of the peptide may be determined using computer assisted morphometric analysis. A modulating agent should inhibit angiogenesis by at least 25% at a concentration of 33 μg/mesh.
The chick chorioallantoic membrane assay was used to assess the effects of cyclic peptides on angiogenesis (Iruela-Arispe et al., Molecular Biology of the Cell 6:327-343, 1995). Cyclic peptides were embedded in a mesh composed of vitrogen at concentrations of 3, 17, and 33 μg/mesh. The meshes were then applied to 12-day-old chick embryonic chorioallantoic membranes. After 24 hours, the effects of the peptides on angiogenesis were assessed by computer assisted morphometric analysis.

Structure (SMILES)	IC50 [1] [µM]	IC50 [2] [µM]	IC50 [3] [µM]	IC50 [4] [µM]	IC50 [5] [µM]	IC50 [6] [µM]	IC50 [7] [µM]	inhibition at 250 µg/mL [8] [%]	IC50 [9] [µM]	inhibitory activity on N-cadherin dependent neurite outgrowth, structure/activity statements ([10]; listed as H-CAHAVDIC-NH2)	inhibitory activity on N-cadherin dependent neurite outgrowth, structure/activity statements ([10]; listed as compound 15)	EC50 [11] [µM]	Percent Inhibition of Angiogenesis ([12]; 3 μg/mesh, absence (−) of 0.01 mM VEGF) [%^]	Percent Inhibition of Angiogenesis ([12]; 3 μg/mesh, presence (+) of 0.01 mM VEGF) [%]	Percent Inhibition of Angiogenesis ([12]; 17 μg/mesh, absence (−) of 0.01 mM VEGF) [%]	Percent Inhibition of Angiogenesis ([12]; 17 μg/mesh, presence (+) of 0.01 mM VEGF) [%]	Percent Inhibition of Angiogenesis ([12]; 33 μg/mesh, absence (−) of 0.01 mM VEGF) [%]	Percent Inhibition of Angiogenesis ([12]; 33 μg/mesh, presence (+) of 0.01 mM VEGF) [%]	inhibition of angiogenesis (in words) ([12]; 3, 17 and 33 μg/mesh)
CC(=O)N[C@H]1CSSC[C@@H](C(N)=O)NC(=O)[C@H](CO)NC(=O)[C@H](CO)NC(=O)[C@H](C(C)C)NC(=O)CNC(=O)[C@H](Cc2c[nH]cn2)NC(=O)[C@H](CO)NC1=O (Ac-CSHGVSSC-NH2; disulfide 1-8)	> 100	> 100	> 100	> 100	> 100	> 100	> 100	0	> 100										
CC[C@H](C)[C@@H]1NC(=O)[C@H](CC(=O)O)NC(=O)[C@H](C(C)C)NC(=O)[C@H](C)NC(=O)[C@H](Cc2c[nH]cn2)NC(=O)[C@H](C)NC(=O)[C@@H](N)CSSC[C@@H](C(N)=O)NC1=O (H-CAHAVDIC-NH2; disulfide 1-8)	> 100	> 100	> 100	> 100	> 100	> 100	> 100	0	> 100	total loss of activity	lost activity								
CC[C@H](C)[C@@H]1NC(=O)[C@H](CC(=O)O)NC(=O)[C@H](C(C)C)NC(=O)CNC(=O)[C@H](Cc2c[nH]cn2)NC(=O)[C@H](C)NC(=O)[C@@H](N)CSSC[C@@H](C(N)=O)NC1=O (H-CAHGVDIC-NH2; disulfide 1-8)	> 100	> 100	> 100	> 100	> 100	> 100	> 100	0	> 100										
CC(C)[C@@H]1NC(=O)[C@H](C)NC(=O)[C@H](Cc2c[nH]cn2)NC(=O)[C@@H](NS(C)(=O)=O)CSSC[C@@H](C(=O)N[C@@H](Cc2ccc(O)cc2)C(N)=O)NC1=O [CH3—SO2—NH—CHAVCY—NH2] (Ms-CHAVCY-NH2; disulfide 1-5)												140							
CC(C)[C@@H]1NC(=O)[C@H](C)NC(=O)[C@H](Cc2c[nH]cn2)NC(=O)[C@H](C)NC(=O)[C@@H](N)CSSC[C@@H](C(N)=O)NC(=O)[C@H](CC(=O)O)NC1=O [H—CAHAVDC—NH2, H-Cys-Ala-His-Ala-Val-Asp-Cys-NH2] (H-CAHAVDC-NH2; disulfide 1-7)	> 100	> 100	> 100	> 100	> 100	> 100	> 100	0	> 100										
CC(C)[C@@H]1NC(=O)CNC(=O)[C@H](Cc2c[nH]cn2)NC(=O)[C@H](C)NC(=O)[C@@H](N)CSSC[C@@H](C(N)=O)NC(=O)[C@H](CC(=O)O)NC1=O [H—CAHGVDC—NH2] (H-CAHGVDC-NH2; disulfide 1-7)	> 100	> 100	> 100	> 100	> 100	> 100	> 100	0	> 100										
CC(=O)N[C@H]1CSSC[C@@H](C(N)=O)NC(=O)[C@H](CC(=O)O)NC(=O)[C@H](C(C)C)NC(=O)CNC(=O)[C@H](Cc2c[nH]cn2)NC(=O)[C@H](C)NC1=O [N—Ac—CAHGVDC—NH2] (Ac-CAHGVDC-NH2; disulfide 1-7)	> 100	> 100	> 100	> 100	> 100	> 100	> 100		> 100										
CC(=O)N[C@H]1CSSC[C@@H](C(N)=O)NC(=O)[C@H](CO)NC(=O)[C@H](C(C)C)NC(=O)CNC(=O)[C@H](Cc2c[nH]cn2)NC1=O [N—Ac—CHGVSC—NH2] (Ac-CHGVSC-NH2; disulfide 1-6)	> 100	> 100	> 100	42	> 100	> 100	> 100	0	> 100										
CC(=O)N[C@H]1CSSC[C@@H](C(N)=O)NC(=O)[C@H](C(C)C)NC(=O)CNC(=O)[C@H](Cc2c[nH]cn2)NC(=O)[C@H](CO)NC1=O [N—Ac—CSHGVC—NH2] (Ac-CSHGVC-NH2; disulfide 1-6)	> 100	> 100	> 100	> 100	> 100	> 100	> 100	0	> 100										
CC(=O)N[C@H]1CSSC[C@@H](C(N)=O)NC(=O)[C@H](Cc2c[nH]cn2)NC(=O)[C@H](C)NC(=O)[C@H](C(C)C)NC1=O [N—Ac—CVAHC—NH2] (Ac-CVAHC-NH2; disulfide 1-5)	> 100	> 100	> 100	8	> 100	> 100	> 100		> 100				−1	7	13	24	12	25	relatively inactive
CC(=O)N[C@H]1CSSC[C@@H](C(N)=O)NC(=O)[C@H](Cc2c[nH]cn2)NC(=O)CNC(=O)[C@H](C(C)C)NC1=O [N—Ac—CVGHC—NH2] (Ac-CVGHC-NH2; disulfide 1-5)	> 100	> 100	> 100	30	> 100	> 100	> 100		> 100										
